One test deals with streptavidin. Briefly: SPR measurement of streptavidin association with the biotin-presenting monolayer. The following applies: biotin 140 μM mixed with streptavidin before introduction to the SAM. The class given is binding. The text has this: The following sequence was used to measure the association of proteins to the monolayers: buffer (phosphate buffered saline, pH 7.4) was flowed over the monolayer for three minutes to establish a baseline; a solution of protein in the same buffer was flowed over the surface for eight minutes to observe binding; buffer was again flowed for four minutes to quantitate the amount of protein that remained bound. […] (SPR measures the angle of light (θ) reflected from the backside of the gold substrate that is a minimum in intensity. Changes in this angle (Δθ) are linearly related to the index of refraction of the solution above the surface and therefore to the density of adsorbed protein (Δθof 0.10°=1 ng/mm^2). Experiments show a change in θ immediately following protein injection due to differences in refractive index between the two solutions.) The change in resonance angle (Δθ) after streptavidin was flowed over the substrate corresponds to a final protein density of 1.1 ng/mm^2. The protein remained irreversibly bound because of the high affinity of the streptavidin-biotin complex.
Electrochemistry was performed in buffered water (PBS, pH 7.4) using the gold substrate as the working electrode, a platinum wire as the counter electrode, and a Ag/AgCl/KCl reference electrode—prior to mounting the substrate in a cartridge for analysis by SPR. […]
(In general: In SPR one partner is held on a chip, and binding of the other changes the refractive index at the surface.)

Test [1] deals with Swiss 3T3 fibroblast cells. Briefly: Adhesion and electrically or peptide-triggered release of cells on patterned RGD monolayer. The class given is cell-based. Here is the method:
The substrate was patterned into two regions that each presented the RGD peptide at a density of less than 0.1% mixed with tri(ethylene glycol) groups. The pattern was formed by applying an alkanethiol solution (corresponding to FIG. 5A) for 5 min to a gold-coated glass substrate, half of which was blocked with a polydimethylsiloxane mask. Following rinsing, the mask was removed, and the substrate was incubated in a solution of a second alkanethiol (corresponding to FIG. 5B) for 6 h. In all cases, the monolayers were formed from ethanolic solutions containing a mixture of an alkanethiol substituted with tri(ethylene glycol) and an alkanethiol substituted with either RGD or the RGD containing alkanethiol of the present invention, in a ratio of 999: 1. The two regions differed only in the linkage used to tether the peptides to the monolayer (C. Roberts, C. S. Chen, M. Mrksich, V. Martichonok, D. E. Ingber, G. M. Whitesides, J. Am. Chem. Soc. 1998, 120, 6548-6555; and B. T. Houseman, M. Mrksich, J. Org. Chem. 1998, 63, 7552-7555).
This substrate was placed into cell culture media and a suspension of Swiss 3T3 fibroblast cells was added. The Swiss Albino 3T3 cells (ATCC, Rockville, Md.) were grown in Dulbecco's Modified Eagle Medium (DMEM) containing 10% fetal bovine serum and penicillin/streptomycin. All cultures were maintained at 37° C. in a humidified 10% CO2 atmosphere. […]

Regarding `O=C(O)CCCC[C@@H]1SC[C@@H]2NC(=O)N[C@@H]21` [biotin], the “binding of streptavidin to the SAM when streptavidin was mixed with biotin” value in the test on streptavidin was “no binding of the protein to the surface”.
As to “Gly-Arg-Gly-Asp-Ser (GRGDS; printed: Gly-Arg-Gly-Asp-Ser)”, in test [1] (2 mM in fresh media, 37° C. for 20 minutes, after electrical treatment), the “cells released from the surface by soluble peptide” value was “greater than 95%”. The “detachment of cells by soluble peptide prior to electrical treatment” value in test [1] (patterned substrate, both regions, prior to electrical treatment) is reported as “near complete detachment of cells from both regions”.

The values are drawn from patent US6764768B2, “Controlled release composition” (Arch Development Corporation, priority 2001, dated 2004).
